The text below walks through data of PubChem BioAssay AID1996.

In brackets after ≈: the same amount, converted by molar mass. Where only a bound is given, the exact number is not on record here.

The conditions of this series: buffer; pH 7.4; 200.0 µM.
In general, kinetic solubility refers to the concentration staying in solution when a stock, usually in DMSO, is diluted into the medium. In turn, `Cc1ccc2nc3c(cc(C#N)c(=N)n3Cc3cccnc3)c(=O)n2c1` showed a solubility (kinetic) of 0.0021 mg/mL (≈ 6.13 µM).
The result for `CCN(C(=O)COc1ncnc2sccc12)c1ccccc1` reads 0.0425 mg/mL (≈ 136 µM); that for `COc1cc2c(cc1OC)CN(C(=O)/C=C/c1cccs1)CC2`, over 0.0494 mg/mL; that for `CCCN1C(=O)/C(=C2/C=Cc3ccccc3N2CC)SC1=S`, under 0.0004 mg/mL.
The result for `O=S(=O)(c1ccc(Cl)c2ccccc12)N1CCCC1` reads under 0.0006 mg/mL; that for `O=C1CC(c2ccccc2)CC(=O)C1=CN1CCCC1` (stereo not drawn), over 0.0404 mg/mL.
The figure for `Cc1cccc(C)c1OCC(=O)Nc1ccncc1` is 0.0218 mg/mL (≈ 85.1 µM); for `CC(=O)c1sc(C(C)(C)C)cc1NC(=O)c1ccccc1C(=O)O` it is over 0.0518 mg/mL; for `CC(C)NC(=O)c1c(O)c2cccc3c2n(c1=O)CCC3` it is under 0.0003 mg/mL.
`[Cl-].c1ccc(Cn2c[n+](Cc3ccccc3)cn2)cc1` showed a kinetic solubility of over 0.0429 mg/mL.
The result for `Cc1ccnc(NC(=O)c2ccc3c(c2)OCO3)c1` reads over 0.0384 mg/mL.
The result for `COc1ccc(-n2cc(-c3ccccc3)[nH]c2=S)c(OC)c1` reads 0.0033 mg/mL (≈ 10.6 µM).
In the case of `Cc1ccc(-c2noc(N=O)c2NO)cc1`, the solubility (kinetic) was 0.0315 mg/mL (≈ 144 µM).
In turn, `Cc1ccc(NC(=O)CCSCCc2ccccn2)cc1` registered a kinetic solubility of over 0.0451 mg/mL.
The figure for `Cc1cc(C(=O)COC(=O)c2cnccn2)c(C)n1-c1ccc(Br)cc1` is 0.0041 mg/mL (≈ 9.9 µM).
The result for `O=C1NC(=O)C(c2ccccc2)(c2ccccc2)N1` reads over 0.0378 mg/mL; that for `CSCCC(NS(=O)(=O)/C=C/c1ccccc1)C(=O)O` (stereo not drawn), over 0.0473 mg/mL; that for `COC(=O)c1ccccc1Nc1ccnc(Cl)n1`, 0.0321 mg/mL (≈ 122 µM).
The result for `Cc1ccc(NC(=O)c2cc3ccccc3o2)cc1` reads 0.0015 mg/mL (≈ 5.97 µM); that for `Cc1cc(C)c(C)c(OCCn2ccnc2)c1`, 0.0314 mg/mL (≈ 136 µM).
In the case of `COc1ccccc1CNC(=O)CN(C)CC(=O)Nc1ccccc1Br`, the solubility (kinetic) is over 0.063 mg/mL.
The figure for `Cc1ccc(C(=O)OCC(=O)NCCc2ccc(S(N)(=O)=O)cc2)o1` is over 0.055 mg/mL; for `CC(=O)N1CCN(S(=O)(=O)c2cccc(C(=O)OCC(=O)N(Cc3ccccc3)C(C)(C)C)c2)CC1` it is 0.0605 mg/mL (≈ 117 µM).
The figure for `COc1ccc2oc(=N)c(C(=O)Nc3cccc(C)c3C)cc2c1` is under 0.0003 mg/mL; for `CCCCOc1ccc(C(=O)N2CCNC(=O)C2)cc1` it is over 0.0415 mg/mL; for `Cc1cc(C)cc(OC(C)C(=O)Nc2ccc3c(c2)n(C)c(=O)n3C)c1` (stereo not drawn) it is 0.0379 mg/mL (≈ 107 µM).
The figure for `CN(C)C(=S)Nc1nc2ccccc2s1` is 0.0054 mg/mL (≈ 22.8 µM); for `COC(=O)c1ccccc1NCC(=O)c1ccc(OC)cc1` it is 0.0112 mg/mL (≈ 37.4 µM); for `CCc1ccc(N2CC(C(=O)OC)CC2=O)cc1` (stereo not drawn) it is over 0.0371 mg/mL.
The molecule `Cc1ccsc1C(=O)NC1CCCCC1C` (stereo not drawn) displayed a kinetic solubility of over 0.0356 mg/mL.
The result for `CCOC(=O)C1=C(C)NC(C)=C(C(=O)OCC)C1C(=O)OCC(=O)N1CCOCC1` reads over 0.0637 mg/mL.
The figure for `Cc1ccc(NS(=O)(=O)c2ccc3c(c2)n(C)c(=O)n3C)c(C)c1` is 0.0179 mg/mL (≈ 51.8 µM); for `CC1CN=C(NC(=O)c2cccc([N+](=O)[O-])c2)S1.Cl` (stereo not drawn) it is 0.0125 mg/mL.
For the molecule `O=C(COC(=O)c1ccc(Cl)nc1)Nc1cc(S(=O)(=O)N2CCOCC2)ccc1Cl`, the solubility (kinetic) worked out at 0.0506 mg/mL (≈ 107 µM).
In turn, `Cc1ccc(S(=O)(=O)NCC(=O)OCc2ccccc2)cc1` gave a kinetic solubility of 0.0403 mg/mL (≈ 126 µM).
The figure for `CC1(C)Nc2ccccc2N(Cc2ccc([N+](=O)[O-])cc2)C1=O` is over 0.0467 mg/mL; for `COc1cccc(NC(=S)N(CCN2CCCCC2)Cc2ccco2)c1` it is 0.0473 mg/mL (≈ 127 µM).
Regarding `CCS(=O)(=O)N1CCC(N2CCN(c3ccccc3)CC2)CC1`, the solubility (kinetic) is 0.0496 mg/mL (≈ 147 µM).
The figure for `Cc1ccccc1SCC(=O)OCC(=O)N1CC(=O)Nc2ccccc21` is 0.0116 mg/mL (≈ 31.3 µM); for `Cc1ccc(S(=O)(=O)N2CCCC(N3CCOCC3)C2)cc1Cl` (stereo not drawn) it is over 0.0538 mg/mL.
The figure for `N#C/C(=C/c1ccc(O)cc1)C(=O)NCc1ccc(Cl)cc1` is 0.0043 mg/mL (≈ 13.7 µM); for `CC1CCCC(NC(=O)Cn2cc([N+](=O)[O-])ccc2=O)C1C` (stereo not drawn) it is 0.044 mg/mL (≈ 143 µM).
The result for `CC(C)(C)NC(=O)c1ccc(COc2ccc(Cl)cc2Cl)o1` reads 0.005 mg/mL (≈ 14.6 µM); that for `Cc1ccc(OC(C)C(=O)N2CC(=O)Nc3ccccc32)c(C)c1` (stereo not drawn), 0.003 mg/mL (≈ 9.25 µM); that for `Cc1cc(OCC(=O)Nc2ccncc2)ccc1Cl`, 0.0406 mg/mL (≈ 147 µM).
In the case of `Cc1ccc(-c2ccc(/C=N/O)o2)cc1[N+](=O)[O-]`, the solubility (kinetic) stood at 0.0034 mg/mL (≈ 13.8 µM).
The result for `CCC(=NCCc1ccccc1)c1c(O)[nH]c(=O)[nH]c1=O` reads over 0.0431 mg/mL; that for `O=S(=O)(c1ccc(-c2ccccc2)cc1)N1CCCCC1`, under 0.0006 mg/mL; that for `O=C(COC(=O)c1cc(Cl)ccc1O)NCC1CCCO1` (stereo not drawn), over 0.0471 mg/mL.
The result for `Cc1ccc(C2CCN(C(=O)Nc3ccc(F)cc3)C2)cc1` (stereo not drawn) reads 0.0017 mg/mL (≈ 5.7 µM); that for `CCNC(=S)NC1CC2CCCC(C1)N2Cc1ccc(C)cc1` (stereo not drawn), 0.0477 mg/mL (≈ 144 µM).
The figure for `O=S1(=O)CCN(Cc2cccc(C(F)(F)F)c2)CC1` is 0.0419 mg/mL (≈ 143 µM); for `Cc1ccc(C)c(OCC(=O)N2CCc3ccccc3C2)c1` it is 0.0223 mg/mL (≈ 75.5 µM); for `Cn1cnc2c1c(=O)[nH]c(=O)n2Cc1ccccc1` it is over 0.0384 mg/mL.
As for `CC(=O)N1CC2([N+](=O)[O-])CN(C(C)=O)CC([N+](=O)[O-])(C1)C2(C)C`, the kinetic solubility was over 0.0492 mg/mL.
The result for `Cn1c(Cl)cnc1C(O)(c1ccccc1)c1ccccc1` reads 0.0102 mg/mL (≈ 34.1 µM).
The result for `CCOc1ccc(CN(C)C(=O)c2ccc3ccccc3n2)cc1` reads 0.0347 mg/mL (≈ 108 µM).
`Fc1cccc(-c2csc(-c3ccno3)n2)c1` showed a solubility (kinetic) of 0.0036 mg/mL (≈ 14.6 µM).
The figure for `S=c1nccc(-c2ccc3c(c2)CCO3)[nH]1` is 0.0148 mg/mL (≈ 64.3 µM).
The result for `Cc1ccc(N=C2C(=O)Nc3ccc(Br)cc32)cc1` reads 0.0011 mg/mL (≈ 3.49 µM); that for `COc1ccc2cc(C(=O)N3CCN(c4ccc(F)cc4)CC3)[nH]c2c1`, 0.0016 mg/mL (≈ 4.53 µM); that for `CCCOc1ccc(/C=C/C(=O)NC2CCCCC2)cc1`, under 0.0006 mg/mL.
The figure for `C/C=C/c1ccc(OCC(=O)Nc2ccncc2)c(OC)c1` is 0.0421 mg/mL (≈ 141 µM); for `C=CCS(=O)(=O)N1CCCC(N(C)CCc2ccc(OC)c(OC)c2)C1` (stereo not drawn) it is 0.0444 mg/mL (≈ 116 µM); for `Cc1cc(C(=O)OCC(=O)Nc2cccc([N+](=O)[O-])c2)c(C)o1` it is 0.0038 mg/mL (≈ 11.9 µM).
`COc1ccc(Nc2ncnc3ccc([N+](=O)[O-])cc23)c(OC)c1` yielded a kinetic solubility of 0.0105 mg/mL (≈ 32.2 µM).
For the molecule `OC(c1ccc(F)cc1)C(CN1CCOCC1)c1ccccc1` (stereo not drawn), the kinetic solubility is over 0.0473 mg/mL.
`Cl.c1ccc(C2CNCCc3ccccc32)cc1` (stereo not drawn) displayed a solubility (kinetic) of over 0.039 mg/mL.
The figure for `c1cncc(-c2nc(NCC3CCCO3)c3ccccc3n2)c1` (stereo not drawn) is over 0.046 mg/mL; for `O=C(O)CNC(=S)N(Cc1ccccc1)Cc1ccccc1F` it is 0.0474 mg/mL (≈ 143 µM).
The result for `Cc1ccc(S(=O)(=O)N2CCN(c3ncccn3)CC2)c(C)c1` reads 0.0018 mg/mL (≈ 5.41 µM).
In turn, `O=C(NC1CCCC1)C1CC(=O)N(c2ccc(F)cc2)C1` (stereo not drawn) displayed a kinetic solubility of 0.0384 mg/mL (≈ 132 µM).
The figure for `COc1ccc(OCC(=O)Nc2ccc3c(c2)OCO3)cc1` is 0.0423 mg/mL (≈ 140 µM).
